Measured values published in PMC8151276, “An Integrated Approach toward NanoBRET Tracers for Analysis of GPCR Ligand Engagement” (Molecules, 2021).

How the values were obtained:
Format in all cases: binding
[1] = molecular target: T1, TBXA2R (Homo sapiens, UniProt P21731); assay: NanoBRET screen HiBiT-TBXA2R in HEK293
T1 construct: purchased Promega (in-house HiBiT-GPCR construct library, NanoBRET)
T1 sequence (P21731 1-343): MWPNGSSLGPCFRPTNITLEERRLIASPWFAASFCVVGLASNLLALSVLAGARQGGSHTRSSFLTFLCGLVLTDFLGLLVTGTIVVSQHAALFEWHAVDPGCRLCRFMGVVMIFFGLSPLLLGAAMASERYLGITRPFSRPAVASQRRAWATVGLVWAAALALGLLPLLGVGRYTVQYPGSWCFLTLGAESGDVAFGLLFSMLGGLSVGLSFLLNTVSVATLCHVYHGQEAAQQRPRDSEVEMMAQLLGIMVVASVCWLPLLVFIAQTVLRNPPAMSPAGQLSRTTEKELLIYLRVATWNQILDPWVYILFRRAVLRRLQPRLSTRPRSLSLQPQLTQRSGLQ
Method: (§1) Each tracer candidate was screened across the entire library of HiBiT-GPCR constructs using NanoBRET as the detection modality. As depicted in Figure 4A, the specificity of interactions was evaluated through decrease in BRET due to competitive displacement of a bound tracer by excess parental compound. Each tracer was analyzed for binding to each HiBiT-GPCR fusion in the absence and in the presence of competing parental compound. Briefly, HEK293 cells were transfected with HiBiT-GPCR constructs diluted into promoterless DNA to reduce expression and maximize translocation to the cell surface. Each tracer candidate was then screened at concentrations of 1 μM and 0.1 μM across cells expressing these fusions. Cells were treated for 1.5 h with tracer either alone or in the presence of 20 μM competing parental compound (i.e., control). BRET was measured upon addition of purified LgBiT and subsequent complementation with HiBiT genetically fused to a GPCR. The specificity of interactions was assessed through a decrease in BRET signal due to competitive displacement of the bound tracer. To further gauge the robustness of these interactions, the fold response over the control (i.e., BRETtracer/BRETcontrol) was calculated. We chose a 1.5-fold response, which translates to ≥7-fold signal over noise as the minimal threshold required to score an interaction as positive. […]. Below we highlight the screening results obtained for our exemplary fluorescent tracers based on Clozapine, Amitriptyline and AZD1283.
(§2) HiBiT-GPCR DNA constructs were diluted in 10 mM Tris pH 8 to a final concentration of 0.01 μg/μL, arrayed in 96-well plates and stored at −20 °C. For transfection, HEK293 cells were suspended in Opti-MEM (without phenol red) supplemented with 2% fetal bovine serum (Seradigm) and 100 units/mL penicillin–streptomycin (Gibco) at a final concentration of 220,000 cells/mL and dispensed into white 96-well plates at 90 μL/well. Subsequent transfections and screens were carried using an Agilent Bravo Automated Liquid Handling Platform. First, the 96-well HiBiT DNA arrays were diluted 25-fold in Opti-MEM (without serum or phenol red) to a final concentration of 0.0004 μg/μL and 20 μL of the diluted DNAs were transferred into new 96-well plates. Next, promoterless carrier DNA (1 μg/μL) was diluted 25-fold (0.04 μg/μL) and then dispensed into the diluted arrays at 20 μL/well. Following brief mixing, Viafect transfection reagent (Promega) diluted 16-fold into Opti-MEM was dispensed into the plates at 40 μL/well. After mixing by pipetting, plates were incubated for 10 min on the pipetting station deck. The DNA-transfection reagent complexes were then added to plates containing cells. To facilitate the screen, 10 μL of DNA-transfection reagent complexes were added in duplicates to the top 4 and bottom 4 rows, resulting in two identical 48-well arrays per plate. Plates with transfected cells were incubated for 18–20 h at 37 °C/5% CO2. A screen of each tracer across the entire library using two different concentrations requires duplicate plates of transfected cells. Depending on the number of tracers being screened, transfections can be scaled up using the same ratios. The next day, for each tracer, four 20× screening solutions in tracer dilution buffer (Promega) were prepared: two duplicates at final concentration of 20 μM and two duplicates at a final concentration of 2 μM. A competing unmodified compound was added to one of each duplicate at a final concentration of 400 μM. The four resulting solutions were diluted 4-fold in Opti-MEM without serum or phenol red to generate 5× solutions (5 µM and 0.5 µM tracer +/− 100 μM competing compound). To screen the library, a BioTek MultiFlo FX liquid dispenser was used to dispense 22.5 µL of tracer solution to the top 4 rows and 22.5 µL tracer + competing compound solution to the 4 bottom rows. Plates were briefly mixed on an orbital shaker and incubated for 1.5 h at room temperature. […]

[2] = molecular target: T2, BDKRB2 (Homo sapiens, UniProt P30411); assay: NanoBRET screen HiBiT-BDKRB2 in HEK293
T2 construct: purchased Promega (in-house HiBiT-GPCR construct library, NanoBRET)
T2 sequence (P30411 1-391): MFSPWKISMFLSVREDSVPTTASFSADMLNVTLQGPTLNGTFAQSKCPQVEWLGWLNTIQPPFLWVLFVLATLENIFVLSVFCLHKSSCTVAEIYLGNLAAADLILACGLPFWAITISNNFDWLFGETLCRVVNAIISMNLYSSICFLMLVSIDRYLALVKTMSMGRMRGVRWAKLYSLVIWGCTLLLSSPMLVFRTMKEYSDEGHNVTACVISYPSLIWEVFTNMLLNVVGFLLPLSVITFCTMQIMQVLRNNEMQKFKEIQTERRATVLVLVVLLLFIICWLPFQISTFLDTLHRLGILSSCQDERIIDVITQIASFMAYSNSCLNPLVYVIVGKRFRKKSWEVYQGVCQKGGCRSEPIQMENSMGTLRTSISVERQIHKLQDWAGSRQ
Method: as §1, §2

[3] = molecular target: T3, NPY2R (Homo sapiens, UniProt P49146); assay: NanoBRET screen HiBiT-NPY2R in HEK293
T3 construct: purchased Promega (in-house HiBiT-GPCR construct library, NanoBRET)
T3 sequence (P49146 1-381): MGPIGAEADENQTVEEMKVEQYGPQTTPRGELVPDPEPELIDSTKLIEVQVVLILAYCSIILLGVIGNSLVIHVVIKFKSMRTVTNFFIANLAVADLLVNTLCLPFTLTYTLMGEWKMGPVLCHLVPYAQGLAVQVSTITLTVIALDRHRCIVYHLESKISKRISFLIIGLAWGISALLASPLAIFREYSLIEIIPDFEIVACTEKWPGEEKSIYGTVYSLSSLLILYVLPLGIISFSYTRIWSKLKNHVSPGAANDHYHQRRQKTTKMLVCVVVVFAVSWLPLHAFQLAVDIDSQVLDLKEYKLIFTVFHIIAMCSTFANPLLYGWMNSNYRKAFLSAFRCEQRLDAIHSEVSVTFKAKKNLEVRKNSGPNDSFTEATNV
Method: as §1, §2

[4] = tracer at 0.1μM, listed as amitriptyline-b-2-NB590
[5] = tracer at 1μM, listed as amitriptyline-b-2-NB590

| SMILES | NanoBRET Fold Response ([1]; TBXA2R, tracer 0.1μM) | NanoBRET Fold Response ([1]; TBXA2R, tracer 1μM) | NanoBRET Fold Response ([2]; BDKRB2, tracer 0.1μM) | NanoBRET Fold Response ([2]; BDKRB2, tracer 1μM) | NanoBRET Fold Response ([3]; NPY2R, tracer 0.1μM) | NanoBRET Fold Response ([3]; NPY2R, tracer 1μM) | also measured |
| --- | --- | --- | --- | --- | --- | --- | --- |
| CN1CCN(C2=Nc3cc(Cl)ccc3Nc3ccc(CNC(=O)CCOCCOCCOCCOCCNC(=O)CCc4ccc5n4[B-](F)(F)[N+]4=C(c6ccc[nH]6)C=CC4=C5)cc32)CC1 [Clozapine-b-2-NB590] | – | – | – | – | – | – | NanoBRET Fold Response ([1]; TBXA2R, 0.1μM tracer): 0.98; NanoBRET Fold Response ([1]; TBXA2R, 1μM tracer): 1.08; NanoBRET Fold Response ([2]; BDKRB2, 0.1μM tracer): 1.00; NanoBRET Fold Response ([2]; BDKRB2, 1μM tracer): 1.00; NanoBRET Fold Response ([3]; NPY2R, 0.1μM tracer): 1.00; NanoBRET Fold Response ([3]; NPY2R, 1μM tracer): 1.02 |
| CN(C)CCC=C1c2ccccc2CCc2ccc(C(=O)NCCNC(=O)CCOCCOCCOCCOCCNC(=O)CCc3ccc4n3[B-](F)(F)[N+]3=C(c5ccc[nH]5)C=CC3=C4)cc21 [Amitriptyline-b-2-NB590] | – | – | – | – | – | – | NanoBRET Fold Response ([1]; tracer at 0.1μM): 0.90; NanoBRET Fold Response ([1]; tracer at 1μM): 1.01; NanoBRET Fold Response [2, 4]: 1.05; NanoBRET Fold Response [2, 5]: 1.12; NanoBRET Fold Response [3, 4]: 1.09; NanoBRET Fold Response [3, 5]: 0.88 |
| CCOC(=O)c1cc(C#N)c(N2CCC(C(=O)NS(=O)(=O)Cc3ccccc3/C=C/C(=O)NCCNC(=O)CCc3ccc4n3[B-](F)(F)[N+]3=C(c5ccc[nH]5)C=CC3=C4)CC2)nc1C [AZD1283-1-NB590] | – | – | – | – | – | – | NanoBRET Fold Response ([1]; TBXA2R, 0.1μM): 1.04; NanoBRET Fold Response ([1]; TBXA2R, 1μM): 1.19; NanoBRET Fold Response ([2]; BDKRB2, 0.1μM): 1.06; NanoBRET Fold Response ([2]; BDKRB2, 1μM): 1.04; NanoBRET Fold Response ([3]; NPY2R, 0.1μM): 1.04; NanoBRET Fold Response ([3]; NPY2R, 1μM): 1.07 |
| CC(C)N(CC[C@H](c1ccccc1)c1cc(CCNC(=O)CCOCCOCCOCCOCCNC(=O)CCc2ccc3n2[B-](F)(F)[N+]2=C(c4ccc[nH]4)C=CC2=C3)ccc1O)C(C)C [Tolterodine-2-NB590] | 0.79 | 1.01 | 0.96 | 0.95 | 1.01 | 0.93 | – |
| CC(C)N(CC[C@H](c1ccccc1)c1cc(CCNC(=O)c2ccc(CNC(=O)CCc3ccc4n3[B-](F)(F)[N+]3=C(c5ccc[nH]5)C=CC3=C4)cc2)ccc1O)C(C)C [Tolterodine-BZ-NB590] | 0.91 | 1.03 | 1.04 | 1.08 | 0.90 | 1.04 | – |
| O=C(CCOCCOCCOCCOCCNC(=O)CCc1ccc2n1[B-](F)(F)[N+]1=C(c3ccc[nH]3)C=CC1=C2)NCCCN1CCN(C2=Nc3ccccc3Oc3ccc(Cl)cc32)CC1 [Loxapine-a-2-NB590] | 0.99 | 1.03 | 1.08 | 1.16 | 1.02 | 1.17 | – |
